Consider 2 compounds from ChEMBL document CHEMBL4052678, “Urotensin core mimics that modulate the biological activity of urotensin-II related peptide but not urotensin-II” (Bioorg Med Chem Lett, 2017).

Calls of active or inactive are those of the source. The rule behind the calls is not given here. Starred links: 1 amine or outer side, 2 acyl side, 3 side chain; linkers in the order of their positions; H or OH if unused. Non-standard residues stand in square brackets, D forms with d. Residues, ends and D or L forms follow the SMILES beside them. X1 = O=C(Cn1cc(CN[*:1])nn1)[*:2]

Common to all, as to format: functional
The test system of test [1] is Aorta. The experiment in a line: Inhibition of human urotensin II-induced contraction in Sprague-Dawley rat aortic rings assessed as Emax for urotensin II relative to KCl-induced contraction (reference value: 8.59 +/- 0.08).
The subject of test [2] is Aorta. Briefly: Inhibition of urotensin II-related peptide-induced contraction in Sprague-Dawley rat aortic rings assessed as Emax for urotensin II-related peptide at 30 umol relative to KCl-induced contraction (reference value: 113 +/- 2%).
Test [3] has as its system Aorta. The experiment in a line: Inhibition of urotensin II-related peptide-induced contraction in Sprague-Dawley rat aortic rings assessed as Emax for urotensin II-related peptide relative to KCl-induced contraction (reference value: 8.07 +/- 0.03).
The subject of test [4] is Aorta. Briefly: Inhibition of human urotensin II-induced contraction in Sprague-Dawley rat aortic rings assessed as Emax for urotensin II at 30 umol relative to KCl-induced contraction (reference value: 104 +/- 4%).
The subject of test [5] is Aorta. The experiment in a line: Induction of contraction in Sprague-Dawley rat aortic rings at 30 umol relative to KCl-induced contraction.
In test [6] the test system is Aorta. Briefly: Induction of contraction in Sprague-Dawley rat aortic rings at 25 umol relative to KCl-induced contraction.

As usually defined, the EC50 is the concentration at which the effect is half-maximal. The Emax is the greatest response seen or fitted, relative to the assay's reference. Consider `NCCCC[C@@H]1NC(=O)[C@H](Cc2c[nH]c3ccccc23)NC(=O)Cn2cc(nn2)CNC(=O)[C@H](Cc2ccc(O)cc2)NC1=O`, for which the concentration giving a half-maximal response (EC50) in the test on Aorta [1] is 1.35 nM; with Aorta [3], 3.02 nM. For the same compound, the Emax in the test with Aorta [2] was found to be 90%; with Aorta [4] it was 97%. In the test on Aorta [5], the result was Active.
On to `NCCCC[C@@H]1NC(=O)[C@H](Cc2c[nH]c3ccccc23)NC(=O)[C@H](Cc2ccccc2)NC(=O)Cn2cc(nn2)CNC(=O)[C@H](Cc2ccc(O)cc2)NC1=O` (cyclo(FWKY[X1])), for which the EC50 with Aorta [1] was 4.27 nM; in the test with Aorta [3] it was 0.501 nM. Also, the maximal response (Emax) was found to be 54% with Aorta [2] and 96% in the test on Aorta [4]. In the test with Aorta [6], the outcome was Active.
